Tests used:
Type in all cases: cell-based
Settings in all cases: reduction of AT-mediated invasion, losartan 2 uM
[1] = tested on: BT549 breast cancer cells; test: Matrigel cell invasion assay, BT549
578T breast cancer cells = test: Matrigel cell invasion assay, 578T
[2] = tested on: MCF-7 breast cancer cells; test: Matrigel cell invasion assay, MCF7
[3] = tested on: H16N2 immortalized benign breast epithelial cell line; test: Matrigel cell invasion assay, H16N2
[4] = tested on: DU145 prostate cancer cells; test: Matrigel cell invasion assay, DU145

With `CCCCc1nc(Cl)c(CO)n1Cc1ccc(-c2ccccc2-c2nn[nH]n2)cc1` [Lo, Losartan] the “Lo (2 uM) % Red.” value [1] was 72.4%, the “Lo (2 uM) % Red.” value ([1]; listed as losartan) was 72% and the “Lo (2 uM) % Red.” value (578T breast cancer cells) was 67.9%. For the same compound, the “Lo (2 uM) % Red.” value (578T breast cancer cells; listed as losartan) was 68%, the “Lo (2 uM) % Red.” value [2] was 56.7% and the “Lo (2 uM) % Red.” value [3] was 16.7%. The “Lo (2 uM) % Red.” value [4] was 35.0%.
